Results taken from patent US5625032A, “Selective amylin antagonist peptides and uses therefor” (Amylin Pharmaceuticals, Inc., priority 1993, dated 1997).
Entries after “also recorded” stand apart in the source; their conditions may differ. Peptide text beside a SMILES is read from it.

What was measured:
rat soleus muscle = test: Soleus muscle assay: antagonism of 100 nM rat amylin on insulin-stimulated glycogenesis; assay type: cell-based; details: read-out: IC50, antagonism of amylin effect on insulin-stimulation of glycogenesis in skeletal muscle
Description: Rat soleus muscle preparations have been in use for many years to study muscle glycogen metabolism and are well known in the field. The soleus muscle assay can be used to measure or test for amylin antagonist activity in vitro. Assays of biological activity of amylin or amylin antagonist preparations in the soleus muscle are performed using previously described methods (e.g., Young, A. A. et al., Am. J. Physiol. 263:E274-281 (1992)).
In summary, while amylin or amylin agonist activity is assessed by measuring the incorporation of radiolabelled glucose into glycogen in soleus muscle in response to an amylin or other amylin agonist, amylin antagonist activity is assessed by measuring the reversal of this inhibition in the presence of 100 nM rat amylin and an amylin antagonist. Concentrations of peptide dissolved in carrier-free buffers are determined by quantitative amino acid analysis, as described herein. The ability of compounds to act as antagonists in this assay can also be evaluated by measuring IC50 values. Standard errors are determined by fitting of sigmoidal dose response curves using a four parameter logistic equation (De Lean, A., Munson, P. J., Guardabasso, V. and Rodbard, D. (1988) ALLFIT, Version 2.7, National Institute of Child Health and Human Development, N.I.H. Bethesda, Md., 1 diskette).
These assays involving the stimulation by insulin of glycogen synthesis in rat soleus muscle in vitro were performed as described by Young, A. A. et al., Am. J. Physiol. 263:E274-281 (1992). Rat amylin inhibited the insulin-stimulated incorporation of radiolabelled glucose into glycogen.
The effects of the peptide in the rat soleus muscle glycogenesis system were measured according to the following method. Insulin-stimulated radioglucose incorporation was measured as described above in the presence of 100 nM rat amylin to maximally suppress incorporation. Increasing concentrations of AAP30 (SEQ ID NO:30), AAP37 (SEQ ID NO:37) and AAP40 (SEQ ID NO:40) were added to test their antagonism of amylin, i.e., to increase radioglucose incorporation under these conditions.

CGRP receptors = target: T1, CGRP receptors (Homo sapiens, UniProt O60894+Q16602); test: CGRP receptor binding assay (125I human αCGRP, SK-N-MC cell membranes); details: for IC50: 20 pM 125I human αCGRP; for selectivity for amylin receptors than CGRP receptors: ratio of CGRP receptor IC50 to amylin receptor IC50
T1 construct: SK-N-MC cells were homogenized in 50 mM HEPES buffer, pH 7.4, and membranes were collected by centrifugation; endogenous in cells; host or cells: human SK-N-MC neuroblastoma cells (membranes)
Description: (§1) As more fully described in Example 9, these assays, like the amylin receptor binding assay, are competition assays which measure the ability of compounds to bind specifically to certain membrane-bound receptors. Preferred sources of membrane preparations used in these assays are human SK-N-MC neuroblastoma cells and human T47D carcinoma cells to measure binding to CGRP and calcitonin receptors, respectively. Compounds being assayed compete for binding to the CGRP receptor preparations with ^125 I human αCGRP and to the calcitonin receptor preparations with ^125 I salmon calcitonin. Competition curves are analyzed as described for amylin receptor binding assays. The affinity of a compound for the amylin receptor relative to the affinity of the compound for the CGRP and calcitonin receptors determines the selectivity of the compound.
(§2) The selectivity of antagonist peptides for the amylin receptor relative to the CGRP and calcitonin receptors was determined by using two in vitro radioligand binding assays and comparing the results obtained to those acquired from the amylin receptor binding assay described in Example 7.
To measure the affinity of the peptides for CGRP receptors, human SK-N-MC neuroblastoma cells were used. […] Van Valen, Piechot & Jurgens, Neuroscience Letters 119:195-198 (1990). SK-N-MC cells were homogenized in 50 mM HEPES buffer, pH 7.4, and membranes were collected by centrifugation for 15 min at 48,000×g. Membranes were suspended at 0.1 to 0.2 mg protein/0.2 ml assay and were incubated in 50 mM HEPES, pH 7.4 containing BSA, bacitracin, and 2 mM MgCl2 with 20 pM ^125 I human αCGRP (labeled at ^10 his, 2000 Ci/mmol) and unlabeled peptide. Additional methods were similar to those described for amylin receptor binding assays in Example 2.

calcitonin receptors [1] = target: T2, calcitonin receptors (Homo sapiens, UniProt P30988); test: Calcitonin receptor binding assay (125I salmon calcitonin, T47D cell membranes); details: 30 pM 125I salmon calcitonin, 60 minutes, ambient temperature
T2 construct: Membranes were prepared from confluent cultures of T47D cells as described for SK-N-MC cells; endogenous in cells; host or cells: human T47D carcinoma cells (membranes)
T2 sequence (P30988 25-474): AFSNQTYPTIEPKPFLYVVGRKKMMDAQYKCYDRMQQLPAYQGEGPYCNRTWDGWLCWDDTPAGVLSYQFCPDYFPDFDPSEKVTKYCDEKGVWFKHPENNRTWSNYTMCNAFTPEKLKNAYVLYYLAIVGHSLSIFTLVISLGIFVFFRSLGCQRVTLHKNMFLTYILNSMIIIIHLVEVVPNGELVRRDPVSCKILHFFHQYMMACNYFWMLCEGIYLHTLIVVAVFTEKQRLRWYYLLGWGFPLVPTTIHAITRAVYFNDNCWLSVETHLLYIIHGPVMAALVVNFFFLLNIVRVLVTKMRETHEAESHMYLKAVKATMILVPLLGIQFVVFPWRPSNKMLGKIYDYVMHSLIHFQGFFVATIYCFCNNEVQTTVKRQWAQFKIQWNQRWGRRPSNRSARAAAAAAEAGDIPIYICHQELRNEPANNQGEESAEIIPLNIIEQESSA
Description: as §1, §2
(§3) To determine the affinity of the antagonist peptides for calcitonin receptors, human T47D carcinoma cells were used. […] Findlay et al., Cancer Research 40:4764-4767 (1980). Membranes were prepared from confluent cultures of T47D cells as described for SK-N-MC cells. Membranes were incubated with ^125 I salmon calcitonin (labeled at ^22 tyr, 2000 Ci/mmol) at a concentration of 30 pM for 60 minutes at ambient temperature. Additional methods were similar to those described for amylin receptor binding assays in Example 2. The IC50 of AAP40 (SEQ ID NO:40) for ^125 I salmon calcitonin binding to human T47D cell membranes was 50 nM.

calcitonin receptors [2] = test: as above; parameters: species or system human; details: ratio of calcitonin receptor IC50 to amylin receptor IC50
Description: as §1, §2, §3

anesthetized rats [3] = test: Infusion studies: inhibition of amylin-induced changes in plasma glucose, lactate, calcium and blood pressure; assay type: in vivo; details: rat, i.v. 1.5 mg bolus then 3 mg/hr for 1.5 h; amylin 50 μg bolus + 50 μg/hour
Description: Briefly, these studies are performed on anesthetized rats as described in International Application Number PCT/US92/00185, "Amylin Activity Assays", published Jul. 22, 1992. At time -0.5 hours, test rats are infused with a 1.5 mg bolus of the antagonist being tested followed by antagonist infusion at 3 mg/hr for a further 1.5 hours. At time 0 hours, a 50 μg bolus of amylin is administered followed by amylin infusion at 50 μg/hr for the remainder of the experiment. In these tests, the capacity of the antagonist to block the hyperglycemic and hyperlactemic effects of amylin are indicated by the inhibition of amylin-evoked increases in plasma glucose and plasma lactate.
Amylin antagonists were evaluated in vivo for their ability to inhibit amylin-induced elevation of plasma glucose and plasma lactate and amylin-evoked depression of plasma calcium and blood pressure. Male Harlan Sprague Dawley rats (age 75-85 days, mass 300-350 g) fasted 18-20 hours were halothane anesthetized and cannulated via the saphenous vein for infusions/injections and via the femoral artery for sampling of glucose/lactate/calcium and for recording arterial pressure. One and a half hours after surgery they were infused with a 1.5 mg intravenous bolus of test antagonist, followed by an infusion of 3 mg/hour for a further 1.5 hours (t=-0.5→+1.0 hr). At t=0 hours (0.5 hours after the start of the primed/continuous antagonist infusion) a 50 μg intravenous bolus of rat amylin was administered followed by an infusion of 50 μg/hour which continued until the end of the experiment. Blood samples were collected every 10 minutes for the first 2 hours of the test (then less frequently),and mean arterial pressure was continuously recorded from t=-0.5→t=+0.5 hours. Control rats, not administered the test substance, were injected with either saline or with primed/continuous amylin at t=0 hours, as described above.

anesthetized rats [4] = test: Renin studies: inhibition of amylin-induced plasma renin activity; assay type: in vivo; details: rat, i.v. 0.5 mg then 1.0 mg/hour; amylin 10 μg subcutaneous bolus
Description: The amylin antagonist AAP40 (SEQ ID NO:40) was evaluated in vivo for its ability to inhibit amylin-induced plasma renin activity. Male Harlan Sprague Dawley (age 77-82 days, mass 300-350 g) fasted 18-20 hours were halothane anesthetized and cannulated as described in Example 10. One and a half hours after surgery, one treatment group of 7 rats was administered amylin as a 10 μg subcutaneous bolus (t=0). Another treatment group of 6 rats was similarly treated except that they were also administered AAP40 (SEQ ID NO:40) (1 mg/mL) as a primed continuous intravenous infusion of 0.5 mg, then 1.0 mg/hour for a further 1.5 hours (t=-10 min to t=+120 min). Blood samples were collected at t=-30, 0, 30, 60 and 120 min for assessment of plasma renin activity using the INCStar GammaCoat [^125 I] plasma renin activity RIA kit (INCStar, Stillwater, Minn.; Cat. No. CA-533-553). Control rats, not administered AAP40 (SEQ ID NO:40), were injected with either saline or with primed/continuous amylin at t=0 hours, as described above.

T1 sequence (Q16602 23-461): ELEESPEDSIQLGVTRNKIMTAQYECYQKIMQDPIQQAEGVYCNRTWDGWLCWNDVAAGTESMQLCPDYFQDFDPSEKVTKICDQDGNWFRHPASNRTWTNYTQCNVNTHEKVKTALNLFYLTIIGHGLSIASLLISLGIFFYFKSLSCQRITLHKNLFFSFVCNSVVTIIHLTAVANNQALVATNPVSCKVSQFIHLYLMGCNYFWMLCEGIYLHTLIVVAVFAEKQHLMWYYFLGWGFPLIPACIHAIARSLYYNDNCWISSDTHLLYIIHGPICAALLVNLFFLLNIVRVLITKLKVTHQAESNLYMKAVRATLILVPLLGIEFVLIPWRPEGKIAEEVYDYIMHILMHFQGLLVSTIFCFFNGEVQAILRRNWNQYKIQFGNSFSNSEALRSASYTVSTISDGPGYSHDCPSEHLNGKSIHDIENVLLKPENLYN
T1 sequence (O60894 27-148): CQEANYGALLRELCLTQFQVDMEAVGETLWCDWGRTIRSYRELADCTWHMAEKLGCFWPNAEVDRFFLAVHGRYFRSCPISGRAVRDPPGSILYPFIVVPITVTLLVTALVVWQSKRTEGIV

| IC50 (rat soleus muscle) [nM] | IC50 (CGRP receptors) [nM] | selectivity for amylin receptors than CGRP receptors (CGRP receptors) [fold] | IC50 (calcitonin receptors [1]) [nM] | Compound | selectivity for amylin receptors than calcitonin receptors (calcitonin receptors [2]) [fold] | effect on amylin-induced decrease in blood pressure (hypotension) (anesthetized rats [3]) | effect on amylin-induced decrease in plasma calcium (hypocalcemia) (anesthetized rats [3]) | effect on amylin-induced increase in plasma glucose (hyperglycemia) (anesthetized rats [3]) | effect on amylin-induced increase in plasma lactate (hyperlactemia) (anesthetized rats [3]) | effect on amylin-induced plasma renin activity (anesthetized rats [4]) |
| --- | --- | --- | --- | --- | --- | --- | --- | --- | --- | --- |
| 1130 | 69 | 43 | 36 | CC(=O)N[C@@H](C)C(=O)N[C@H](C(=O)N[C@@H](CCC(N)=O)C(=O)N[C@@H](CC(C)C)C(=O)N[C@@H](CC(C)C)C(=O)N[C@@H](C)C(=O)N[C@@H](CC(N)=O)C(=O)N[C@@H](CCC(N)=O)C(=O)N[C@@H](CC(C)C)C(=O)N[C@H](C(=O)N[C@@H](CCCNC(=N)N)C(=O)N[C@@H](CC(C)C)C(=O)N[C@@H](CCC(N)=O)C(=O)N[C@H](C(=O)N[C@@H](Cc1ccc(O)cc1)C(=O)N1CCC[C@H]1C(=O)N[C@@H](CCCNC(=N)N)C(=O)N[C@H](C(=O)N[C@@H](CC(N)=O)C(=O)N[C@H](C(=O)NCC(=O)N[C@@H](CO)C(=O)N[C@@H](CC(N)=O)C(=O)N[C@H](C(=O)N[C@@H](Cc1ccc(O)cc1)C(N)=O)[C@@H](C)O)C(C)C)[C@@H](C)O)[C@@H](C)O)C(C)C)[C@@H](C)O [AAP30] (Ac-ATQLLANQLVRLQTYPRTNVGSNTY-NH2; N-terminus assumed) | 22 | did not inhibit amylin-induced decreases in blood pressure | did not inhibit | suppressed; also recorded: prevent | suppressed; also recorded: prevent | – |
| 4590 | 2.6 | 12 | 160 | CC(=O)N[C@@H](C)C(=O)N[C@H](C(=O)N[C@@H](CCC(N)=O)C(=O)N[C@@H](CCCNC(=N)N)C(=O)N[C@@H](CC(C)C)C(=O)N[C@@H](C)C(=O)N[C@@H](CC(N)=O)C(=O)N[C@@H](CCC(N)=O)C(=O)N[C@@H](CC(C)C)C(=O)N[C@H](C(=O)N[C@@H](CCCNC(=N)N)C(=O)N[C@@H](CC(C)C)C(=O)N[C@@H](CCC(N)=O)C(=O)N[C@H](C(=O)N[C@@H](Cc1ccc(O)cc1)C(=O)N1CCC[C@H]1C(=O)N[C@@H](CCCNC(=N)N)C(=O)N[C@H](C(=O)N[C@@H](CC(N)=O)C(=O)N[C@H](C(=O)NCC(=O)N[C@@H](CO)C(=O)N[C@@H](CC(N)=O)C(=O)N[C@H](C(=O)N[C@@H](Cc1ccc(O)cc1)C(N)=O)[C@@H](C)O)C(C)C)[C@@H](C)O)[C@@H](C)O)C(C)C)[C@@H](C)O [AAP37] (Ac-ATQRLANQLVRLQTYPRTNVGSNTY-NH2) | 762 | did block this effect | did not inhibit | suppressed; also recorded: prevent | suppressed; also recorded: prevent | – |
| 136 | 33 | 66 | 50 | CC(=O)N[C@@H](C)C(=O)N[C@H](C(=O)N[C@@H](CCC(N)=O)C(=O)N[C@@H](CCCNC(=N)N)C(=O)N[C@@H](CC(C)C)C(=O)N[C@@H](C)C(=O)N[C@@H](CC(N)=O)C(=O)N[C@@H](CCC(=O)O)C(=O)N[C@@H](CC(C)C)C(=O)N[C@H](C(=O)N[C@@H](CCCNC(=N)N)C(=O)N[C@@H](CC(C)C)C(=O)N[C@@H](CCC(N)=O)C(=O)N[C@H](C(=O)N[C@@H](Cc1ccc(O)cc1)C(=O)N1CCC[C@H]1C(=O)N[C@@H](CCCNC(=N)N)C(=O)N[C@H](C(=O)N[C@@H](CC(N)=O)C(=O)N[C@H](C(=O)NCC(=O)N[C@@H](CO)C(=O)N[C@@H](CC(N)=O)C(=O)N[C@H](C(=O)N[C@@H](Cc1ccc(O)cc1)C(N)=O)[C@@H](C)O)C(C)C)[C@@H](C)O)[C@@H](C)O)C(C)C)[C@@H](C)O [AAP40] (Ac-ATQRLANELVRLQTYPRTNVGSNTY-NH2) | 100 | did not inhibit | did not inhibit | suppressed; also recorded: prevent | suppressed; also recorded: prevent | effectively inhibits |
